Experimental data taken from ChEMBL document CHEMBL4334464, “From Phenylthiazoles to Phenylpyrazoles: Broadening the Antibacterial Spectrum toward Carbapenem-Resistant Bacteria” (J Med Chem, 2019).
Values after ≈ are worked out from the molar mass of the structure shown. Active and inactive are the calls of the source. No cut-off for these calls is given here.

How the values were obtained:
[1] = tested on: Clostridioides difficile; test: Antibacterial activity against Clostridium difficile ATCC BAA 1870 incubated for 48 hrs in anaerobic condition by CLSI-based broth microdilution assay; format: functional; settings: ATCC BAA 1870, 48 h
[2] = tested on: Acinetobacter baumannii; test: Antibacterial activity against carbapenem-resistant Acinetobacter baumannii ATCC BAA 1605 clinical isolates after 18 to 20 hrs in aerobic condition by CLSI-based broth microdilution assay; format: functional
[3] = tested on: Escherichia coli; test: Antibacterial activity against carbapenem-resistant Escherichia coli BAA-2452 clinical isolates after 18 to 20 hrs in aerobic condition by CLSI-based broth microdilution assay; format: functional
[4] = tested on: Streptococcus pneumoniae; test: Ratio of MBC to MIC for […] Streptococcus pneumoniae ATCC 700677 clinical isolates; format: functional
[5] = tested on: Staphylococcus aureus; test: Ratio of MBC to MIC for Methicillin-sensitive Staphylococcus aureus ATCC 6538 clinical isolates; format: functional
[6] = tested on: Listeria monocytogenes; test: Antibacterial activity against Listeria monocytogenes ATCC 19111 after 18 to 20 hrs in aerobic condition by CLSI-based broth microdilution assay; format: functional
[7] = tested on: Staphylococcus aureus; test: Antibiofilm activity against methicillin-resistant Staphylococcus aureus NRS384-USA300 clinical isolates assessed as inhibition of biofilm formation at 0.5 times MIC incubated for 24 hrs by crystal violet staining based spectrophotometric method relative to control; format: functional
[8] = tested on: Clostridioides difficile; test: Ratio of MBC to MIC for Clostridium difficile ATCC BAA 1870; format: functional
[9] = tested on: Staphylococcus aureus; test: Ratio of MBC to MIC for Methicillin-sensitive Staphylococcus aureus NRS107 clinical isolates; format: functional
[10] = tested on: Staphylococcus aureus; test: Antibacterial activity against vancomycin-resistant Staphylococcus aureus isolate 10 after 18 to 20 hrs in aerobic condition by CLSI-based broth microdilution assay; format: functional
[11] = tested on: Acinetobacter baumannii; test: Ratio of MBC to MIC for Acinetobacter baumannii ATCC 19606 clinical isolates; format: functional, ATCC 19606 = CIP 70.34 = JCM 6841
[12] = tested on: Klebsiella pneumoniae; test: Antibacterial activity against Klebsiella pneumoniae BAA-1144 clinical isolates after 18 to 20 hrs in aerobic condition by CLSI-based broth microdilution assay; format: functional
[13] = tested on: Escherichia coli; test: Antibacterial activity against carbapenem-resistant Escherichia coli BAA-2469 clinical isolates after 18 to 20 hrs in aerobic condition by CLSI-based broth microdilution assay; format: functional
[14] = tested on: Acinetobacter baumannii; test: Antibacterial activity against Acinetobacter baumannii NR 17786 clinical isolates after 18 to 20 hrs in aerobic condition by CLSI-based broth microdilution assay; format: functional
[15] = tested on: Enterococcus faecium; test: Antibacterial activity against vancomycin-resistant Enterococcus faecium ATCC 700221 clinical isolates after 18 to 20 hrs in aerobic condition by CLSI-based broth microdilution assay; format: functional
[16] = tested on: Klebsiella pneumoniae; test: Antibacterial activity against Klebsiella pneumoniae BAA-1706 clinical isolates after 18 to 20 hrs in aerobic condition by CLSI-based broth microdilution assay; format: functional
[17] = tested on: Shigella flexneri; test: Antibacterial activity against Shigella flexneri ATCC 9199 clinical isolates after 18 to 20 hrs in aerobic condition by CLSI-based broth microdilution assay; format: functional
[18] = tested on: Escherichia coli; test: Ratio of MBC to MIC for Escherichia coli ATCC 25922 clinical isolates; format: functional
[19] = tested on: Pseudomonas aeruginosa; test: microbe, parasite or virus in culture; settings: ATCC 9027
Description: Antibacterial activity against Pseudomonas aeruginosa ATCC 9027 clinical isolates after 18 to 20 hrs in aerobic condition by CLSI-based broth microdilution assay

[20] = tested on: Pseudomonas aeruginosa; test: Antibacterial activity against Pseudomonas aeruginosa ATCC 15442 clinical isolates after 18 to 20 hrs in aerobic condition by CLSI-based broth microdilution assay; format: functional
[21] = tested on: Acinetobacter baumannii; test: microbe, parasite or virus in culture; settings: ATCC BAA 1747
Description: Antibacterial activity against Acinetobacter baumannii ATCC BAA 1747 after 18 to 20 hrs in aerobic condition by CLSI-based broth microdilution assay

[22] = tested on: Acinetobacter baumannii; test: Ratio of MBC to MIC for Acinetobacter baumannii ATCC BAA 1747 clinical isolates; format: functional
[23] = tested on: Staphylococcus aureus; test: Antibacterial activity against vancomycin-resistant Staphylococcus aureus isolate 12 after 18 to 20 hrs in aerobic condition by CLSI-based broth microdilution assay; format: functional
[24] = tested on: Salmonella enteritidis; test: Ratio of MBC to MIC for Salmonella enteritidis ATCC 14028 clinical isolates; format: functional, Salmonella enterica subsp. enterica serovar Enteritidis
[25] = tested on: Streptococcus pneumoniae; test: Antibacterial activity against methicillin-resistant Streptococcus pneumoniae ATCC 700677 clinical isolates after 18 to 20 hrs by CLSI-based broth microdilution assay; format: functional
[26] = tested on: Acinetobacter baumannii; test: Ratio of MBC to MIC for Acinetobacter baumannii ATCC BAA 1141 clinical isolates; format: functional
[27] = tested on: Enterococcus faecalis; test: Antibacterial activity against vancomycin-resistant Enterococcus faecalis ATCC 51299 clinical isolates after 18 to 20 hrs in aerobic condition by CLSI-based broth microdilution assay; format: functional
[28] = tested on: Staphylococcus aureus; test: Antibacterial activity against Methicillin-resistant Staphylococcus aureus NRS123-USA400 clinical isolates after 18 to 20 hrs in aerobic condition by CLSI protocol based broth microdilution assay; format: functional
[29] = tested on: Salmonella enteritidis; test: Antibacterial activity against Salmonella enteritidis ATCC 14028 clinical isolates after 18 to 20 hrs in aerobic condition by CLSI-based broth microdilution assay; format: functional, Salmonella enterica subsp. enterica serovar Enteritidis; settings: Salmonella enterica
[30] = tested on: Pseudomonas aeruginosa; test: Antibacterial activity against carbapenem-resistant Pseudomonas aeruginosa ATCC 1744 clinical isolates after 18 to 20 hrs in aerobic condition by CLSI-based broth microdilution assay; format: functional
[31] = tested on: Enterococcus faecalis; test: Ratio of MBC to MIC for vancomycin-resistant Enterococcus faecalis ATCC 51299 clinical isolates; format: functional
[32] = molecular target: T1, Ditrans,polycis-undecaprenyl-diphosphate synthase ((2E,6E)-farnesyl-diphosphate specific) (Escherichia coli (strain K12)) (UniProt P60472); test: Inhibition of Escherichia coli UPPS using FPP/IPP as substrate preincubated for 30 mins followed by substrates addition and measured after 30 mins by malachite green reagent based assay
T1 sequence (whole entry): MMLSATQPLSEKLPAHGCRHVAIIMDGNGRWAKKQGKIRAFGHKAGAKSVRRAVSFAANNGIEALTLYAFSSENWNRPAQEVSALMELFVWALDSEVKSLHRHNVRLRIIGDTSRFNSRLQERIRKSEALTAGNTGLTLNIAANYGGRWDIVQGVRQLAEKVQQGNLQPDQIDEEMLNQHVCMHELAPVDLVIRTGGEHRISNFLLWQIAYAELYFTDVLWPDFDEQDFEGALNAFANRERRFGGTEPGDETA

Compound | MIC [1] [µg/mL] | Ratio [4] | Ratio [5] | MIC [6] [µg/mL] | Ratio [8] | Ratio [9] | MIC [10] [µg/mL] | Ratio [11] | MIC [12] [µg/mL] | MIC [14] [µg/mL] | MIC [15] [µg/mL] | MIC [16] [µg/mL] | MIC [17] [µg/mL] | Ratio [18] | MIC [19] [µg/mL] | MIC [20] [µg/mL] | MIC [21] [µg/mL] | Ratio [22] | MIC [23] [µg/mL] | Ratio [24] | further results
CCCC#Cc1ccc(-n2ncc(/C(C)=N/NC(=N)N)c2C)cc1 | 8 (≈ 24.8 µM) | <3 | <=2 | 4 (≈ 12.4 µM) | <3 | <=2 | 2 (≈ 6.2 µM) | >=1 | 16 (≈ 49.6 µM) | 16 (≈ 49.6 µM) | 4 (≈ 12.4 µM) | 8 (≈ 24.8 µM) | 16 (≈ 49.6 µM) | >=1 | 32 (≈ 99.3 µM) | 16 (≈ 49.6 µM) | 8 (≈ 24.8 µM) | >=1 | 2 (≈ 6.2 µM) | >=1 | MIC [2]: 16 µg/mL (≈ 49.6 µM); MIC [3]: 32 µg/mL (≈ 99.3 µM); inhibition (INH) [7]: 74%; MIC [13]: 32 µg/mL (≈ 99.3 µM); MIC [25]: 4 µg/mL (≈ 12.4 µM); Ratio [26]: >=1; MIC [27]: 4 µg/mL (≈ 12.4 µM); MIC [28]: 2 µg/mL (≈ 6.2 µM); MIC [29]: 16 µg/mL (≈ 49.6 µM); MIC [30]: 32 µg/mL (≈ 99.3 µM); Ratio [31]: <3; inhibition [32]: inactive
CCCCCC#Cc1ccc(-n2ncc(/C(C)=N/NC(=N)N)c2C)cc1 | 4 (≈ 11.4 µM) | <3 | <=2 | 2 (≈ 5.71 µM) | <3 | <=2 | 2 (≈ 5.71 µM) | >=1 | 16 (≈ 45.7 µM) | 8 (≈ 22.8 µM) | 2 (≈ 5.71 µM) | 8 (≈ 22.8 µM) | 8 (≈ 22.8 µM) | >=1 | 16 (≈ 45.7 µM) | 32 (≈ 91.3 µM) | 4 (≈ 11.4 µM) | >=1 | 2 (≈ 5.71 µM) | >=1 | MIC [2]: 8 µg/mL (≈ 22.8 µM); MIC [3]: 16 µg/mL (≈ 45.7 µM); MIC [13]: 8 µg/mL (≈ 22.8 µM); MIC [25]: 2 µg/mL (≈ 5.71 µM); Ratio [26]: >=1; MIC [27]: 2 µg/mL (≈ 5.71 µM); MIC [28]: 2 µg/mL (≈ 5.71 µM); MIC [29]: 16 µg/mL (≈ 45.7 µM); MIC [30]: 32 µg/mL (≈ 91.3 µM); Ratio [31]: <3; inhibition [32]: inactive
C/C(=N\NC(=N)N)c1cnn(-c2ccc(C#CC3(O)CCCCC3)cc2)c1C | 4 (≈ 10.6 µM) | <3 | <=2 | 2 (≈ 5.28 µM) | <3 | <=2 | 2 (≈ 5.28 µM) | >=1 | 16 (≈ 42.3 µM) | 16 (≈ 42.3 µM) | 2 (≈ 5.28 µM) | 8 (≈ 21.1 µM) | 16 (≈ 42.3 µM) | >=1 | 32 (≈ 84.5 µM) | 64 (≈ 169 µM) | 16 (≈ 42.3 µM) | >=1 | 2 (≈ 5.28 µM) | >=1 | MIC [2]: 32 µg/mL (≈ 84.5 µM); MIC [3]: 64 µg/mL (≈ 169 µM); MIC [13]: 64 µg/mL (≈ 169 µM); MIC [25]: 2 µg/mL (≈ 5.28 µM); Ratio [26]: >=1; MIC [27]: 2 µg/mL (≈ 5.28 µM); MIC [28]: 2 µg/mL (≈ 5.28 µM); MIC [29]: 32 µg/mL (≈ 84.5 µM); MIC [30]: 64 µg/mL (≈ 169 µM); Ratio [31]: <3
C/C(=N\NC(=N)N)c1cnn(-c2ccc(C#Cc3ccccc3)cc2)c1C | 4 (≈ 11.2 µM) | <3 | <=2 | 2 (≈ 5.61 µM) | <3 | <=2 | 1 (≈ 2.81 µM) | >=1 | 8 (≈ 22.4 µM) | 8 (≈ 22.4 µM) | 1 (≈ 2.81 µM) | 8 (≈ 22.4 µM) | 8 (≈ 22.4 µM) | >=1 | 16 (≈ 44.9 µM) | 32 (≈ 89.8 µM) | 4 (≈ 11.2 µM) | >=1 | 2 (≈ 5.61 µM) | >=1 | MIC [2]: 4 µg/mL (≈ 11.2 µM); MIC [3]: 8 µg/mL (≈ 22.4 µM); inhibition (INH) [7]: 50%; MIC [13]: 8 µg/mL (≈ 22.4 µM); MIC [25]: 2 µg/mL (≈ 5.61 µM); Ratio [26]: >=1; MIC [27]: 1 µg/mL (≈ 2.81 µM); MIC [28]: 2 µg/mL (≈ 5.61 µM); MIC [29]: 16 µg/mL (≈ 44.9 µM); MIC [30]: 16 µg/mL (≈ 44.9 µM); Ratio [31]: <3; inhibition [32]: inactive
CCCCCC#Cc1ccc(-n2ncc(/C(C)=N/NC3=NCCN3)c2C)cc1 | 4 (≈ 10.6 µM) | <3 | <=2 | 2 (≈ 5.31 µM) | <3 | <=2 | 2 (≈ 5.31 µM) | >=1 | > 128 | > 128 | 2 (≈ 5.31 µM) | > 128 | > 128 | >=1 | > 128 | > 128 | > 128 | >=1 | 2 (≈ 5.31 µM) | >=1 | MIC [25]: 2 µg/mL (≈ 5.31 µM); Ratio [26]: >=1; MIC [27]: 4 µg/mL (≈ 10.6 µM); MIC [28]: 4 µg/mL (≈ 10.6 µM); MIC [29]: > 128 µg/mL; Ratio [31]: <3; inhibition [32]: inactive
